{"source": "paper PMC9811530", "about": "(Experimental and Clinical Endocrinology & Diabetes, 2022)", "origin": "cited, not measured here", "key": {"11beta-HSD1 in the liver": {"molecular_target": "11beta-HSD1 in the liver (Homo sapiens, UniProt P28845)", "sequence (P28845 whole entry)": "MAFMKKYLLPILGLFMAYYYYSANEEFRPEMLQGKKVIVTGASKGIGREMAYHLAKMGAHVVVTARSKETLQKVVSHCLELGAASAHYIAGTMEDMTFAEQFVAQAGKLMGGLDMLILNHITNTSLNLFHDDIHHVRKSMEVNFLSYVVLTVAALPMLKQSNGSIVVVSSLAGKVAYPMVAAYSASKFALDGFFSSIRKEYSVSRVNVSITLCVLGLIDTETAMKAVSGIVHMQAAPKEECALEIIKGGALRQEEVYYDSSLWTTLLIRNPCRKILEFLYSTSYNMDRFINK", "details": "cited from earlier work"}, "11beta-HSD1 in AT": {"system": "11beta-HSD1 in AT", "details": "single dose, 24 h after dosing; cited from earlier work"}}, "note": "Like-named read-outs stand apart in the source and are kept apart here.", "data": [{"smiles": "CCCSc1nc(N2CCC[C@@H](CC(=O)O)C2)ccc1C(=O)NC1CCCCC1", "note": "[AZD4017]", "values": [{"measurement": "maximum decrease of the (aTHF+THF)/THE ratio", "setting": "11beta-HSD1 in the liver; after 9 days", "value": 92, "unit": "%"}]}, {"smiles": "CC(C)[C@]1(C)SC(=N[C@H]2C[C@@H]3CC[C@H]2C3)NC1=O", "note": "[AMG 221]", "values": [{"measurement": "11beta-HSD1 inhibition in AT", "setting": "11beta-HSD1 in AT", "value": "> 90", "unit": "%"}]}, {"smiles": "C[C@@H](c1ccc(-c2ccn(C)c(=O)c2)cc1)N1CC[C@](CC(C)(C)O)(c2ccccc2)OC1=O", "note": "[BI 135585]", "values": [{"measurement": "inhibition of 11beta-HSD1 in AT", "setting": "11beta-HSD1 in AT", "value": 90, "unit": "%"}]}, {"smiles": "N#Cc1ccc(-c2ccc(S(=O)(=O)Nc3cccc(N)n3)cc2)cc1", "note": "[PF-915275]", "values": [{"measurement": "maximum decrease of the (aTHF+THF)/THE ratio", "setting": "11beta-HSD1 in the liver; after 14 days of treatment", "value": 26, "unit": "%"}]}]}
